Key:
[1] = biological target: T1, PTHR1 (Homo sapiens, UniProt Q03431); assay: class B GPCR panel cAMP assay, PTHR1; type: cell-based; conditions: read-out: Max response
T1 construct: host or cells: cells expressing PTHR1 (unnamed vendor)
T1 sequence (Q03431 27-593): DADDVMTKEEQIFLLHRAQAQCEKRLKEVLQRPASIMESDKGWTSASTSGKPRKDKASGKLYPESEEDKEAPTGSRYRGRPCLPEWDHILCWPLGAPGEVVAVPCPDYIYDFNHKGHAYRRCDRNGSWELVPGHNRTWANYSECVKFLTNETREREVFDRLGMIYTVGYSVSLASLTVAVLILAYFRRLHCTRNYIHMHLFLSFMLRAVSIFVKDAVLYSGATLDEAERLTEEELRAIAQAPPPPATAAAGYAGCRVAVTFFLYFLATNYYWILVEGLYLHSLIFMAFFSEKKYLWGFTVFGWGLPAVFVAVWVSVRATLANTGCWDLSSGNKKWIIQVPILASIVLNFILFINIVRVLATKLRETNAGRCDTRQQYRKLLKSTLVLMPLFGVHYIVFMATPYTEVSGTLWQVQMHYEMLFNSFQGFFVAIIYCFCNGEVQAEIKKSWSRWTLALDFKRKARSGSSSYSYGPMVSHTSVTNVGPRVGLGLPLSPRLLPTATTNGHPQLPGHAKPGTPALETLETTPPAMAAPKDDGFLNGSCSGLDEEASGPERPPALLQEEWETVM
Method: (§1) The assays were performed according to the vendor's standard operating procedures with a positive control included for each receptor tested.

[2] = biological target: T2, CALCR (Homo sapiens, UniProt P30988); assay: class B GPCR panel cAMP assay, CALCR; type: cell-based
T2 construct: host or cells: cells expressing CALCR (unnamed vendor)
T2 sequence (P30988 25-474): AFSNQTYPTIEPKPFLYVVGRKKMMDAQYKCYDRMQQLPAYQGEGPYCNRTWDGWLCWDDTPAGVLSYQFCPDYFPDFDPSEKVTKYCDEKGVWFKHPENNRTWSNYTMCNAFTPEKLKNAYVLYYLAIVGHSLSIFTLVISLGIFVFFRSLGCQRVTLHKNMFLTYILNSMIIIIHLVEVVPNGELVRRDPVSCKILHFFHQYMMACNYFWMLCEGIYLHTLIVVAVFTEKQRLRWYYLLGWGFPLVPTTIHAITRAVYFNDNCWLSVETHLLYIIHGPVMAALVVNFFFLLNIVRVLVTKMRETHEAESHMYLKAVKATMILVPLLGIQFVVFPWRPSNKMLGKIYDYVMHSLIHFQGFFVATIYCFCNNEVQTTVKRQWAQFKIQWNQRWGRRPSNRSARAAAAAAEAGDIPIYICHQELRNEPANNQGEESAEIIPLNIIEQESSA
Method: as §1

Compound	Emax [1] [%]	Curve Bottom ([2]; CALCR cAMP assay)	Curve Top ([2]; CALCR cAMP assay)	Hill ([2]; CALCR cAMP assay)	Emax ([2]; read-out: Max response) [%]
CC[C@H](C)[C@H](NC(=O)[C@H](CCC(=O)O)NC(=O)[C@H](CO)NC(=O)[C@@H](NC(=O)[C@@H](N)CO)C(C)C)C(=O)N[C@@H](CCC(N)=O)C(=O)N[C@@H](CC(C)C)C(=O)N[C@@H](CCSC)C(=O)N[C@@H](Cc1cnc[nH]1)C(=O)N[C@@H](CC(N)=O)C(=O)N[C@@H](CC(C)C)C(=O)NCC(=O)N[C@@H](CCCCN)C(=O)N[C@@H](Cc1cnc[nH]1)C(=O)N[C@@H](CC(C)C)C(=O)N[C@@H](CC(N)=O)C(=O)N[C@@H](CO)C(=O)N[C@@H](CCSC)C(=O)N[C@@H](CCC(=O)O)C(=O)N[C@@H](CCCNC(=N)N)C(=O)N[C@H](C(=O)N[C@@H](CCC(=O)O)C(=O)N[C@@H](Cc1c[nH]c2ccccc12)C(=O)N[C@@H](CC(C)C)C(=O)N[C@@H](CCCNC(=N)N)C(=O)N[C@@H](CCCCN)C(=O)N[C@@H](CCCCN)C(=O)N[C@@H](CC(C)C)C(=O)N[C@@H](CCC(N)=O)C(=O)N[C@@H](CC(=O)O)C(=O)N[C@H](C(=O)N[C@@H](Cc1cnc[nH]1)C(=O)N[C@@H](CC(N)=O)C(=O)N[C@@H](Cc1ccccc1)C(=O)O)C(C)C)C(C)C [PTH(1-34)]	93.6				
CC(C)C[C@H](NC(=O)[C@H](CCCCN)NC(=O)CNC(=O)[C@H](CC(C)C)NC(=O)[C@@H](NC(=O)[C@@H]1CSSC[C@H](N)C(=O)N[C@@H](CO)C(=O)N[C@@H](CC(N)=O)C(=O)N[C@@H](CC(C)C)C(=O)N[C@@H](CO)C(=O)N[C@@H]([C@@H](C)O)C(=O)N1)C(C)C)C(=O)N[C@@H](CO)C(=O)N[C@@H](CCC(N)=O)C(=O)N[C@@H](CCC(=O)O)C(=O)N[C@@H](CC(C)C)C(=O)N[C@@H](Cc1c[nH]cn1)C(=O)N[C@@H](CCCCN)C(=O)N[C@@H](CC(C)C)C(=O)N[C@@H](CCC(N)=O)C(=O)N[C@H](C(=O)N[C@@H](Cc1ccc(O)cc1)C(=O)N1CCC[C@H]1C(=O)N[C@@H](CCCNC(=N)N)C(=O)N[C@H](C(=O)N[C@@H](CC(N)=O)C(=O)N[C@H](C(=O)NCC(=O)N[C@@H](CO)C(=O)NCC(=O)N[C@H](C(=O)N1CCC[C@H]1C(N)=O)[C@@H](C)O)[C@@H](C)O)[C@@H](C)O)[C@@H](C)O [Calcitonin]		−6.2187	105	1.5254	101
